Reference: publication PMC8536679, “A small molecule produced by Lactobacillus species blocks Candida albicans filamentation by inhibiting a DYRK1-family kinase” (Nature Communications, 2021)

Target: T1, Yak1 (Candida albicans, UniProt A0A1D8PH81)
T1 construct: full-length, C-terminal 6xHis-3xFlag tag kept; both YAK1 alleles tagged and overexpressed in C. albicans; native purification on anti-Flag gel, eluted with 3xFlag peptide
Assay: ADP-Glo kinase assay with DYRKtide
Type: biochemical
Conditions: 10 µM ATP, 0.2 mg/mL DYRKtide, 2.5 mM MgCl2, HEPES-NaOH pH 7.2, 40 min; ATP site proposed by docking only

T1 sequence (A0A1D8PH81 entry or part of it): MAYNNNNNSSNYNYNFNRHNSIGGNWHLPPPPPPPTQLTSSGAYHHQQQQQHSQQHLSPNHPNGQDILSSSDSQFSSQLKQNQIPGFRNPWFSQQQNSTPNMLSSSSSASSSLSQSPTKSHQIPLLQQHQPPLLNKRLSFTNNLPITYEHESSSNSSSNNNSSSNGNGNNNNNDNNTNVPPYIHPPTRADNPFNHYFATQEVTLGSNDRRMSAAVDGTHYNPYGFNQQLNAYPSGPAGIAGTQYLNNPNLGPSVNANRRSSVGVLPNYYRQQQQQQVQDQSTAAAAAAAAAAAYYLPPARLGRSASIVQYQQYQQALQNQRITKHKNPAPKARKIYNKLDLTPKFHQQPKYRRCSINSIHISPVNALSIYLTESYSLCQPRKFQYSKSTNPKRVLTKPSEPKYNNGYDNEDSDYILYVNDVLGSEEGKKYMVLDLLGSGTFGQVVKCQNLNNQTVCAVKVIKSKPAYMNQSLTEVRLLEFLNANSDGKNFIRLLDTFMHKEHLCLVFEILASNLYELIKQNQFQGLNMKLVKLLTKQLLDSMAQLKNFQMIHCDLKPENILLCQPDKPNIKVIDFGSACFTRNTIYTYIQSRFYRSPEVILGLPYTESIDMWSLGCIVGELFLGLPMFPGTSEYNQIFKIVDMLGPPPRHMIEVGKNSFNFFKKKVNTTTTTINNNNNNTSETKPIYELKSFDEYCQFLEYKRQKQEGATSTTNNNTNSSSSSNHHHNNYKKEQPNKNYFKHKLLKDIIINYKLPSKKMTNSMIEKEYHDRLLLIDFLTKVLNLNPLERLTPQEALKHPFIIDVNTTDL

SMILES	concentration-dependent inhibition
CCOC(=O)c1nccc2c1[nH]c1ccccc12 [1-ECBC, 1-ethoxycarbonyl-β-carboline]	1-ECBC and harmine, a known β-carboline scaffold DYRK inhibitor, exhibited concentration-dependent inhibition of Yak1 activity
COc1ccc2c(c1)[nH]c1c(C)nccc12 [harmine]	1-ECBC and harmine inhibit Yak1 activity in a concentration-dependent manner
